{
  "source": "patent US7902373B2",
  "about": "(Pfizer Inc, priority 2006, dated 2011)",
  "note": "pIC50: −log10 of the molar value.",
  "data": [
    {"target": "human recombinant H-PGDS (Homo sapiens, UniProt O60760)", "sequence (O60760 whole entry)": "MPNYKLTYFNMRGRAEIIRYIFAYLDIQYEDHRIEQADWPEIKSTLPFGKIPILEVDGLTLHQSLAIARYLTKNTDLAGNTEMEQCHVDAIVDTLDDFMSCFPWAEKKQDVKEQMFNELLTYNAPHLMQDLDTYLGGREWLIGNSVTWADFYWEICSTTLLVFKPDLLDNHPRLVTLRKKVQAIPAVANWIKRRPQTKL", "assay": "Fluorescence intensity h-PGDS TBA enzyme assay", "format": "biochemical", "settings": "Examples up to 622 (and 3a, 3b)", "values": [
      {"smiles": "CC(C)(C)OC(=O)N1CCCC(CN2CCC(NC(=O)c3ccc(-c4cccc(F)c4)nc3)CC2)C1", "note": "(centres unmarked) [Example 333, tert-Butyl 3-{[4-({[6-(3-fluorophenyl)pyridin-3-yl]carbonyl}amino)piperidin-1-yl]methyl}piperidine-1-carboxylate]", "pIC50": 8.98},
      {"smiles": "O=C(NC1CCN(Cc2cnc3ccccc3n2)CC1)c1ccc(-c2cccc(F)c2)nc1", "note": "[Example 263, 6-(3-Fluorophenyl)-N-[1-(quinoxalin-2-ylmethyl)piperidin-4-yl]nicotinamide]", "pIC50": 8.94},
      {"smiles": "Cc1ncc(CN2CCC(NC(=O)c3ccc(-c4cccc(F)c4)nc3)CC2)s1", "note": "[Example 446, 6-(3-Fluorophenyl)-N-{1-[(2-methyl-1,3-thiazol-5-yl)methyl]piperidin-4-yl}nicotinamide]", "pIC50": 9.05},
      {"smiles": "O=C(O)c1ccc(N2CCC(NC(=O)c3ccc(-c4cccc(F)c4)nc3)CC2)nc1", "note": "[Example 560, 6-[4-({[6-(3-Fluorophenyl)pyridin-3-yl]carbonyl}amino)piperidin-1-yl]nicotinic acid]", "pIC50": 9.19},
      {"smiles": "CC(C)(C)c1ncc2c(n1)CCC(CN1CCC(NC(=O)c3ccc(-c4cccc(F)c4)nc3)CC1)C2", "note": "(centres unmarked) [Example 402, N-{1-[(2-tert-Butyl-5,6,7,8-tetrahydroquinazolin-6-yl)methyl]piperidin-4-yl}-6-(3-fluorophenyl)nicotinamide]", "pIC50": 8.79},
      {"smiles": "C=C(C)CN(C)C(=O)c1ccc(N2CCC(NC(=O)c3ccc(-c4cccc(F)c4)nc3)CC2)nc1", "note": "[Example 562, 6-[4-({[6-(3-Fluorophenyl)pyridin-3-yl]carbonyl}amino)piperidin-1-yl]-N-methyl-N-(2-methylprop-2-en-1-yl)nicotinamide]", "pIC50": 8.76},
      {"smiles": "CC(C)(C)C(=O)Nc1ncccc1CN1CCC(NC(=O)c2ccc(-c3cccc(F)c3)nc2)CC1", "note": "[Example 346, N-[1-({2-[(2,2-Dimethylpropanoyl)amino]pyridin-3-yl}methyl)piperidin-4-yl]-6-(3-fluorophenyl)nicotinamide]", "pIC50": 8.39},
      {"smiles": "CCOc1ccc(CN2CCC(NC(=O)c3ccc(-c4cccc(F)c4)nc3)CC2)cc1OC", "note": "[Example 253, N-[1-(4-Ethoxy-3-methoxybenzyl)piperidin-4-yl]-6-(3-fluorophenyl)nicotinamide]", "pIC50": 8.84},
      {"smiles": "O=C(NC1CCN(C2CCCC2)CC1)c1ccc(-c2cccc(F)c2)nc1", "note": "[Example 551, N-(1-Cyclopentylpiperidin-4-yl)-6-(3-fluorophenyl)nicotinamide]", "pIC50": 8.88},
      {"smiles": "CCCc1ncc2c(n1)CCC(CN1CCC(NC(=O)c3ccc(-c4cccc(F)c4)nc3)CC1)C2", "note": "(centres unmarked) [Example 403, 6-(3-Fluorophenyl)-N-{1-[(2-propyl-5,6,7,8-tetrahydroquinazolin-6-yl)methyl]piperidin-4-yl}nicotinamide]", "pIC50": 9.92},
      {"smiles": "O=C(NC1CCN(Cc2nc3ccccc3n2C2CC2)CC1)c1ccc(-c2cccc(F)c2)nc1", "note": "[Example 422, N-{1-[(1-Cyclopropyl-1H-benzimidazol-2-yl)methyl]piperidin-4-yl}-6-(3-fluorophenyl)nicotinamide]", "pIC50": 8.60},
      {"smiles": "CCC(C)N1CCC(NC(=O)c2ccc(-c3cccc(F)c3)nc2)CC1", "note": "(centres unmarked) [Example 545, N-(1-sec-Butylpiperidin-4-yl)-6-(3-fluorophenyl)nicotinamide]", "pIC50": 8.58},
      {"smiles": "CCCC(=O)N1CCC(NC(=O)c2ccc(-c3cccc(C)c3)nc2)CC1", "note": "[Example 24, N-(1-Butyrylpiperidin-4-yl)-6-(3-methylphenyl)nicotinamide]", "pIC50": 8.58},
      {"smiles": "CC(C)c1nnc2ccc(CN3CCC(NC(=O)c4ccc(-c5cccc(F)c5)nc4)CC3)cn12", "note": "[Example 470, 6-(3-Fluorophenyl)-N-{1-[(3-isopropyl[1,2,4]triazolo[4,3-a]pyridin-6-yl)methyl]piperidin-4-yl}nicotinamide]", "pIC50": 8.38},
      {"smiles": "O=C(NC1CCN(c2nccc(-c3cccc(F)c3)n2)CC1)c1ccc(-c2cccc(F)c2)nc1", "note": "[Example 172, 6-(3-Fluorophenyl)-N-{1-[4-(3-fluorophenyl)pyrimidin-2-yl]piperidin-4-yl}nicotinamide]", "pIC50": 7.46},
      {"smiles": "Cn1cnc(CN2CCC(NC(=O)c3ccc(-c4cccc(F)c4)nc3)CC2)c1", "note": "[Example 374, 6-(3-Fluorophenyl)-N-{1-[(1-methyl-1H-imidazol-4-yl)methyl]piperidin-4-yl}nicotinamide]", "pIC50": 8.52},
      {"smiles": "CC(C)(C)OC(=O)NC1(CN2CCC(NC(=O)c3ccc(-c4cccc(F)c4)nc3)CC2)CCC1", "note": "[Example 334, tert-Butyl (1-{[4-({[6-(3-fluorophenyl)pyridin-3-yl]carbonyl}amino)piperidin-1-yl]methyl}cyclobutyl)carbamate]", "pIC50": 8.56},
      {"smiles": "CC(C)(C)OC(=O)N1CCC(NC(=O)c2ccc(-c3cccc(F)c3)nc2)C(c2ccc(F)cc2)C1", "note": "(centres unmarked) [Example 523, tert-Butyl 3-(4-fluorophenyl)-4-({[6-(3-fluorophenyl)pyridin-3-yl]carbonyl}amino)piperidine-1-carboxylate]", "pIC50": 6.66},
      {"smiles": "CC(C)(O)c1cc(CN2CCC(NC(=O)c3ccc(-c4cccc(F)c4)nc3)CC2)ccn1", "note": "[Example 464, 6-(3-Fluorophenyl)-N-(1-{[2-(1-hydroxy-1-methylethyl)pyridin-4-yl]methyl}piperidin-4-yl)nicotinamide]", "pIC50": 8.99},
      {"smiles": "Cc1c(CN2CCC(NC(=O)c3ccc(-c4cccc(F)c4)nc3)CC2)nc2ccccn12", "note": "[Example 432, 6-(3-Fluorophenyl)-N-{1-[(3-methylimidazo[1,2-a]pyridin-2-yl)methyl]piperidin-4-yl}nicotinamide]", "pIC50": 9.02},
      {"smiles": "CC(C)(C)OCCN1CCC(NC(=O)c2ccc(-c3cccc(F)c3)nc2)CC1", "note": "[Example 278, N-[1-(2-tert-Butoxyethyl)piperidin-4-yl]-6-(3-fluorophenyl)nicotinamide]", "pIC50": 8.30},
      {"smiles": "COCC(C)n1nnnc1N1CCC(NC(=O)c2ccc(-c3cccc(F)c3)nc2)CC1", "note": "(centres unmarked) [Example 101, 6-(3-fluorophenyl)-N-{1-[1-(2-methoxy-1-methylethyl)-1H-tetrazol-5-yl]piperidin-4-yl}nicotinamide]", "pIC50": 8.85},
      {"smiles": "CCCC(=O)N1CCC(NC(=O)c2ccc(-c3ccc(F)cc3)nc2)CC1", "note": "[Example 10, N-(1-Butyrylpiperidin-4-yl)-6-(4-fluorophenyl)nicotinamide]", "pIC50": 7.11},
      {"smiles": "CCOC(=O)c1cnc(C(F)(F)F)nc1N1CCC(NC(=O)c2ccc(-c3cccc(F)c3)nc2)CC1", "note": "[Example 145, Ethyl 4-[4-({[6-(3-fluorophenyl)pyridin-3-yl]carbonyl}amino)piperidin-1-yl]-2-(trifluoromethyl)pyrimidine-5-carboxylate]", "pIC50": 8.23},
      {"smiles": "CCOC(=O)c1cnc(N2CCC(NC(=O)c3ccc(-c4cccc(F)c4)nc3)CC2)cc1N1CCOCC1", "note": "[Example 120, Ethyl 6-[4-({[6-(3-fluorophenyl)pyridin-3-yl]carbonyl}amino)piperidin-1-yl]-4-morpholin-4-ylnicotinate]", "pIC50": 8.46},
      {"smiles": "Cn1c(CN2CCC(NC(=O)c3ccc(-c4cccc(F)c4)nc3)CC2)nc2cccnc21", "note": "[Example 415, 6-(3-Fluorophenyl)-N-{1-[(3-methyl-3H-imidazo[4,5-b]pyridin-2-yl)methyl]piperidin-4-yl}nicotinamide]", "pIC50": 8.71},
      {"smiles": "COc1ccc(C)cc1CN1CCC(NC(=O)c2ccc(-c3cccc(F)c3)nc2)CC1", "note": "[Example 515, 6-(3-Fluorophenyl)-N-[1-(2-methoxy-5-methylbenzyl)piperidin-4-yl]nicotinamide]", "pIC50": 8.96},
      {"smiles": "O=C(NC1CCN(C2CCC(Oc3ccccc3)CC2)CC1)c1ccc(-c2cccc(F)c2)nc1", "note": "(centres unmarked) [Example 556, 6-(3-Fluorophenyl)-N-[1-(4-phenoxycyclohexyl)piperidin-4-yl]nicotinamide]", "pIC50": 9.44},
      {"smiles": "Cc1ccc(C#N)c(N2CCC(NC(=O)c3ccc(-c4cccc(F)c4)nc3)CC2)n1", "note": "[Example 41, N-[1-(3-Cyano-6-methylpyridin-2-yl)piperidin-4-yl]-6-(3-fluorophenyl)nicotinamide]", "pIC50": 9.05},
      {"smiles": "O=C(NC1CCN(Cc2cccc(-n3cccn3)n2)CC1)c1ccc(-c2cccc(F)c2)nc1", "note": "[Example 375, 6-(3-Fluorophenyl)-N-(1-{[6-(1H-pyrazol-1-yl)pyridin-2-yl]methyl}piperidin-4-yl)nicotinamide]", "pIC50": 9.18},
      {"smiles": "Cc1ccc(-c2c(CN3CCC(NC(=O)c4ccc(-c5cccc(F)c5)nc4)CC3)cnn2C)cc1", "note": "[Example 510, 6-(3-Fluorophenyl)-N-(1-{[1-methyl-5-(4-methylphenyl)-1H-pyrazol-4-yl]methyl}piperidin-4-yl)nicotinamide]", "pIC50": 8.56},
      {"smiles": "O=C(NC1CCN(c2ccc(C(=O)N3CCC(F)C3)cn2)CC1)c1ccc(-c2cccc(F)c2)nc1", "note": "(centres unmarked) [Example 568, 6-(3-Fluorophenyl)-N-(1-{5-[(3-fluoropyrrolidin-1-yl)carbonyl]pyridin-2-yl}piperidin-4-yl)nicotinamide]", "pIC50": 9.19},
      {"smiles": "Cn1c(CN2CCC(NC(=O)c3ccc(-c4cccc(F)c4)nc3)CC2)cc2ccccc21", "note": "[Example 207, 6-(3-Fluorophenyl)-N-{1-[(1-methyl-1H-indol-2-yl)methyl]piperidin-4-yl}nicotinamide]", "pIC50": 8.80},
      {"smiles": "O=C(NC1CCN(c2ncc3ccccc3n2)CC1)c1ccc(-c2cccc(F)c2)nc1", "note": "[Example 166, 6-(3-Fluorophenyl)-N-(1-quinazolin-2-ylpiperidin-4-yl)nicotinamide]", "pIC50": 8.46},
      {"smiles": "N#Cc1ccccc1CN1CCC(NC(=O)c2ccc(-c3cccc(F)c3)nc2)CC1", "note": "[Example 213, N-[1-(2-Cyanobenzyl)piperidin-4-yl]-6-(3-fluorophenyl)nicotinamide]", "pIC50": 9.33},
      {"smiles": "O=C(N[C@@H]1CN(c2nnnn2-c2ccccc2)C[C@H]1O)c1ccc(-c2cccc(F)c2)nc1", "note": "(relative stereo) [Example 619, Trans-6-(3-fluorophenyl)-N-[4-hydroxy-1-(1-phenyl-1H-tetrazol-5-yl)pyrrolidin-3-yl]nicotinamide]", "pIC50": 8.92},
      {"smiles": "CCOc1ccc2nc(CN3CCC(NC(=O)c4ccc(-c5cccc(F)c5)nc4)CC3)ccc2c1", "note": "[Example 338]", "pIC50": 7.20},
      {"smiles": "O=C(NC1CCN(c2nccc(C(F)(F)F)n2)CC1)c1ccc(-c2cccc(F)c2)nc1", "note": "[Example 136, 6-(3-Fluorophenyl)-N-{1-[4-(trifluoromethyl)pyrimidin-2-yl]piperidin-4-yl}nicotinamide]", "pIC50": 8.29}
    ]}
  ]
}
